Data as given in the supplement of paper PMC10307832.

Experiments:
Experiment in all cases: relative viability (nuclei count vs DMSO), 5 days (fraction); higher = more cells survive
17-AAG + Lapatinib = compound: C=CCNC1=C2C[C@@H](C)C[C@H](OC)[C@H](O)[C@@H](C)/C=C(\C)[C@H](OC(N)=O)[C@@H](OC)/C=C\C=C(/C)C(=O)NC(=CC1=O)C2=O [17-AAG] + CS(=O)(=O)CCNCc1ccc(-c2ccc3ncnc(Nc4ccc(OCc5cccc(F)c5)c(Cl)c4)c3c2)o1 [Lapatinib] (partner 2 µM)
In short: (§1)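 Lung cancer cell lines, seeded in 1536-well plates, were treated the following day by pin tool with a single drug or with five library-drug doses (not always all listed) in √10 steps on top of a fixed anchor-drug dose. Cells were fixed and nuclei stained in one step after 5 days, and nuclei were counted. Relative viability is the nuclei count for treated wells divided by that for vehicle wells, reported as medians of duplicate plates.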

17-AAG + Decitabine = compound: C=CCNC1=C2C[C@@H](C)C[C@H](OC)[C@H](O)[C@@H](C)/C=C(\C)[C@H](OC(N)=O)[C@@H](OC)/C=C\C=C(/C)C(=O)NC(=CC1=O)C2=O [17-AAG] + Nc1ncn([C@H]2C[C@H](O)[C@@H](CO)O2)c(=O)n1 [Decitabine] (partner 2 µM)
In short: as §1

17-AAG + Luminespib = compound: C=CCNC1=C2C[C@@H](C)C[C@H](OC)[C@H](O)[C@@H](C)/C=C(\C)[C@H](OC(N)=O)[C@@H](OC)/C=C\C=C(/C)C(=O)NC(=CC1=O)C2=O [17-AAG] + CCNC(=O)c1noc(-c2cc(C(C)C)c(O)cc2O)c1-c1ccc(CN2CCOCC2)cc1 [Luminespib] (partner 0.01 µM)
In short: as §1

17-AAG + Olaparib = compound: C=CCNC1=C2C[C@@H](C)C[C@H](OC)[C@H](O)[C@@H](C)/C=C(\C)[C@H](OC(N)=O)[C@@H](OC)/C=C\C=C(/C)C(=O)NC(=CC1=O)C2=O [17-AAG] + O=C(c1cc(Cc2n[nH]c(=O)c3ccccc23)ccc1F)N1CCN(C(=O)C2CC2)CC1 [Olaparib] (partner 8 µM)
In short: as §1

Cell Line | relative viability (17-AAG + Lapatinib; first compound 0.00128 µM) | relative viability (17-AAG + Lapatinib; first compound 0.004048 µM) | relative viability (17-AAG + Lapatinib; first compound 0.0128 µM) | relative viability (17-AAG + Lapatinib; first compound 0.04048 µM) | relative viability (17-AAG + Lapatinib; first compound 0.128 µM) | relative viability (17-AAG + Decitabine; first compound 0.00128 µM) | relative viability (17-AAG + Decitabine; first compound 0.004048 µM) | relative viability (17-AAG + Decitabine; first compound 0.0128 µM) | relative viability (17-AAG + Decitabine; first compound 0.04048 µM) | relative viability (17-AAG + Decitabine; first compound 0.128 µM) | relative viability (17-AAG + Luminespib; first compound 0.00128 µM) | relative viability (17-AAG + Luminespib; first compound 0.004048 µM) | relative viability (17-AAG + Luminespib; first compound 0.0128 µM) | relative viability (17-AAG + Luminespib; first compound 0.04048 µM) | relative viability (17-AAG + Luminespib; first compound 0.128 µM) | relative viability (17-AAG + Olaparib; first compound 0.00128 µM) | relative viability (17-AAG + Olaparib; first compound 0.004048 µM) | relative viability (17-AAG + Olaparib; first compound 0.0128 µM) | relative viability (17-AAG + Olaparib; first compound 0.04048 µM) | relative viability (17-AAG + Olaparib; first compound 0.128 µM)
NCI-H1755 | 1.06 | 0.972 | 0.772 | 0.27 | 0.165 | 0.695 | 0.772 | 0.671 | 0.643 | 0.391 | 0.479 | 0.444 | 0.364 | 0.273 | 0.223 | 0.873 | 0.849 | 0.903 | 0.712 | 0.238
NCI-H2228 | 1.08 | 0.109 | 0.128 | 0.161 | 0.168 | – | – | – | – | – | 0.124 | 0.102 | 0.11 | 0.157 | 0.107 | 0.523 | 0.21 | 0.127 | 0.111 | 0.147
NCI-H2087 | 0.823 | 0.808 | 0.477 | 0.238 | 0.135 | 0.248 | 0.193 | 0.104 | 0.113 | 0.114 | 0.17 | 0.158 | 0.159 | 0.131 | 0.0988 | 0.649 | 0.216 | 0.168 | 0.134 | 0.129
LU99A | 0.885 | 0.965 | 0.323 | 0.288 | 0.141 | 0.917 | 0.915 | 0.863 | 0.749 | 0.213 | 0.239 | 0.201 | 0.213 | 0.169 | 0.146 | 0.271 | 0.26 | 0.237 | 0.165 | 0.162
NCI-H1355 | 0.97 | 0.979 | 0.776 | 0.223 | 0.159 | 0.35 | 0.345 | 0.361 | 0.246 | 0.183 | 0.649 | 0.685 | 0.457 | 0.337 | 0.18 | 0.749 | 0.718 | 0.459 | 0.2 | 0.136
NCI-H596 | 1.19 | 1.06 | 1.17 | 0.996 | 0.818 | 1.05 | 0.988 | 0.899 | 0.891 | 0.502 | 1.08 | 0.865 | 0.996 | 0.548 | 0.414 | 0.784 | 0.739 | 0.674 | 0.48 | 0.371
NCI-H727 | 0.775 | 0.765 | 0.829 | 0.238 | 0.342 | 0.871 | 0.915 | 0.875 | 0.538 | 0.411 | 0.607 | 0.245 | 0.331 | 0.316 | 0.284 | 0.619 | 0.737 | 0.696 | 0.707 | 0.386
NCI-H661 | 0.445 | 0.436 | 0.47 | 0.416 | 0.259 | 0.496 | 0.552 | 0.473 | 0.341 | 0.257 | 0.872 | 0.895 | 0.797 | 0.353 | 0.257 | 0.804 | 0.716 | 0.529 | 0.333 | 0.253
